This is an account of results in patent publication US10577395B2 (priority 2014, dated 2020).

Values after ≈ are worked out from the molar mass of the structure shown. Like-named read-outs stand apart in the source and are kept apart here.

Assay [1] has as its system Enterococcus faecium (VanA VRE, ATCC BAA-2317). The assay can be described thus: Antimicrobial assay, MIC, VanA E. faecium. The conditions noted are these: for MIC: Enterococcus faecium. In kind it is cell-based. How it is done:
(§1) Assays were carried out following the methods of Clinical and Laboratory Standards Institute; Methods for Dilution Antimicrobial Susceptibility Tests for Bacteria That Grow Aerobically; Approved Standard, […].; CLSI document M07-A8; Clinical and Laboratory Standards Institute: Wayne, Pa., 2009.
(§2) This diluted bacterial stock solution was then inoculated into a well of a V-shaped 96-well glass coated microtiter plate, supplemented with serial diluted aliquots of the antibiotic solution DMSO (4 μL), to achieve a total assay volume of 0.1 mL. The plate was then incubated at 37° C. for 18 hours, after which minimal inhibitory concentrations (MICs) were determined by monitoring the cell growth (observed as a pellet) in the wells. The lowest concentration of antibiotic (in μg/mL) capable of eliminating the cell growth in the wells is reported as the MIC.

Assay [2] has as its system methicillin and oxacillin-resistant Staphylococcus aureus subsp. aureus (MRSA strain ATCC 43300). Kind of assay: Antimicrobial assay, MIC, MRSA. In kind it is cell-based. The conditions noted are these: for MIC: Staphylococcus aureus, read-out: MIC, MRSA S. aureus. On the procedure: as §1, §2
Assay [3] has as its system vancomycin-resistant Enterococcus faecalis (VanB VRE, strain ATCC 51299). The assay can be described thus: microbe, parasite or virus in culture. In kind it is cell-based. As to conditions: for MIC: Enterococcus faecalis, read-out: MIC, VanB E. faecalis. How it is done: as §1, §2
In assay [4] the test system is vancomycin-resistant Enterococcus faecalis (VanA VRE, BM4166). The assay can be described thus: microbe, parasite or virus in culture. The class given is cell-based. The conditions noted are these: for MIC: Enterococcus faecalis, VRE. On the procedure:
as §1, §2

For assay [5], the system named is vancomycin-sensitive Staphylococcus aureus (VSSA strain ATCC 25923). The assay can be described thus: Antimicrobial assay, MIC, vancomycin-sensitive S. aureus. The conditions noted are these: ATCC 25923; for MIC: Staphylococcus aureus, ATCC25923, read-out: MIC, sensitive S. aureus. The class given is cell-based. How it is done: as §1, §2
Assay [6] has as its system VanA VRE. Kind of assay: Antimicrobial assay, MIC for VanA VRE. The class given is cell-based, E. faecalis and E. faecium. On the procedure:
as §1, §2

The mark [7] stands for this setting: read-out: MIC, VanA E. faecalis.
Setting [8] is: read-out: MIC, Van A E. faecium, serum concentration 10%.
[9] abbreviates: read-out: MIC, Van A E. faecium, serum concentration 25%.
Setting [10] is: read-out: MIC, Van A E. faecium, serum concentration 100%.
[11] abbreviates: read-out: MIC, Van A E. faecalis, serum concentration 10%.
[12] abbreviates: read-out: MIC, Van A E. faecalis, serum concentration 25%.
Where [13] appears, read: read-out: MIC, Van A E. faecalis, serum concentration 100%.

On to `CN[C@H](CC(C)C)C(=O)N[C@H]1C(=O)N[C@@H](CC(N)=O)C(=O)N[C@H]2C(=O)NC3C(=O)N[C@H](C(=O)N[C@H](CO)c4cc(O)cc(O)c4-c4cc3ccc4O)[C@H](O)c3ccc(c(Cl)c3)Oc3cc2cc(c3OC2OC(CO)C(O)[C@H](O)[C@@H]2O[C@H]2CC(C)(N)[C@H](O)[C@H](C)O2)Oc2ccc(cc2Cl)[C@H]1O` (stereo partly shown) [Compound 23, hydroxymethylvancomycin, reference compound], for which the “MIC, VanA E. faecium” value in assay [1] (ATCC BAA-2317) amounted to 250 µg/mL (≈ 174 µM). Moreover, the “MIC, MRSA S. aureus” value in assay [2] (ATCC 43300) was determined as 0.5 µg/mL (≈ 0.348 µM). For the same molecule, in assay [3] (ATCC 51299), the “MIC, VanB E. faecalis” value worked out at 8 µg/mL (≈ 5.57 µM). Further, the “MIC, VanA E. faecalis” value in assay [4] (BM 4166) worked out at 250 µg/mL (≈ 174 µM). Besides, in assay [5], the “MIC, sensitive S. aureus” value was 0.5 µg/mL (≈ 0.348 µM).
Take `CN[C@H](CC(C)C)C(=O)N[C@H]1C(=O)N[C@@H](CC(N)=O)C(=O)N[C@H]2C(=N)NC3C(=O)N[C@H](C(=O)N[C@H](CO)c4cc(O)cc(O)c4-c4cc3ccc4O)[C@H](O)c3ccc(c(Cl)c3)Oc3cc2cc(c3OC2OC(CO)C(O)[C@H](O)[C@@H]2O[C@H]2CC(C)(NCc3ccc(-c4ccc(Cl)cc4)cc3)[C@H](O)[C@H](C)O2)Oc2ccc(cc2Cl)[C@H]1O` (stereo partly shown) [Compound 28]: the MIC was 0.02 µg/mL (≈ 0.0122 µM) in assay [1] (read-out: MIC, VanA E. faecium); 0.13 µg/mL (≈ 0.0795 µM) in assay [2]; 0.06 µg/mL (≈ 0.0367 µM) in assay [3]; 0.02 µg/mL (≈ 0.0122 µM) in assay [4] (setting [7]); 0.13 µg/mL (≈ 0.0795 µM) in assay [5].
Turning to “CBP-[Ψ[CH2NH]Tpg^4]vancomycin [Compound 17]”, in assay [1] (ATCC BAA-2317), the “MIC, VanA E. faecium” value turned out to be 0.06 µg/mL. Further, in assay [1] (ATCC BAA-2317, 10%), the “MIC, Van A E. faecium, serum concentration 10%” value came to 0.06 µg/mL. In addition, in assay [1] (ATCC BAA-2317, 25%), the “MIC, Van A E. faecium, serum concentration 25%” value is 0.13 µg/mL. In addition, the “MIC, Van A E. faecium, serum concentration 100%” value in assay [1] (ATCC BAA-2317, 100%) was 0.5 µg/mL. In assay [2] (ATCC 43300), the “MIC, MRSA S. aureus” value came out at 0.25 µg/mL. The “MIC, MRSA S. aureus, serum concentration 10%” value in assay [2] (ATCC 43300, 10%) is 0.25 µg/mL. For the same molecule, the “MIC, MRSA S. aureus, serum concentration 25%” value in assay [2] (ATCC 43300, 25%) stood at 0.5 µg/mL. For the same molecule, in assay [2] (ATCC 43300, 100%), the “MIC, MRSA S. aureus, serum concentration 100%” value came to 1 µg/mL. For the same molecule, the “improvement in activity against VanA VRE on introduction of the (4-chlorobiphenyl)methyl group” value in assay [6] (relative to the analogue without CBP group) is recorded as 100 fold. Further, the “MIC against VanA VRE” value in assay [6] (stated for VanA VRE) fell in the range of 0.06 to 0.13 µg/mL. The “MIC, VanB E. faecalis” value in assay [3] (ATCC 51299) was determined as 0.5 µg/mL. In addition, in assay [3] (ATCC 51299, 10%), the “MIC, Van B E. faecalis, serum concentration 10%” value is 0.5 µg/mL. In addition, the “MIC, Van B E. faecalis, serum concentration 25%” value in assay [3] (ATCC 51299, 25%) is 1 µg/mL. Further, in assay [3] (ATCC 51299, 100%), the “MIC, Van B E. faecalis, serum concentration 100%” value worked out at 2 µg/mL. The “MIC, VanA E. faecalis” value in assay [4] (BM 4166) is 0.13 µg/mL. Besides, the “MIC, Van A E. faecalis, serum concentration 10%” value in assay [4] (BM 4166, 10%) came out at 0.13 µg/mL. Besides, the “MIC, Van A E. faecalis, serum concentration 25%” value in assay [4] (BM 4166, 25%) was determined as 0.26 µg/mL. Further, the “MIC, Van A E. faecalis, serum concentration 100%” value in assay [4] (BM 4166, 100%) worked out at 0.5 µg/mL.
As for `CN[C@H](CC(C)C)C(=O)N[C@H]1C(=O)N[C@@H](CC(N)=O)C(=O)N[C@H]2C(=O)NC3C(=O)N[C@H](C(=O)N[C@H](CO)c4cc(O)cc(O)c4-c4cc3ccc4O)[C@H](O)c3ccc(c(Cl)c3)Oc3cc2cc(c3OC2OC(CO)C(O)[C@H](O)[C@@H]2O[C@H]2CC(C)(NCc3ccc(-c4ccc(Cl)cc4)cc3)[C@H](O)[C@H](C)O2)Oc2ccc(cc2Cl)[C@H]1O` (stereo partly shown) [Compound 26], the MIC worked out at 4 µg/mL (≈ 2.45 µM) in assay [1] (read-out: MIC, VanA E. faecium); 0.03 µg/mL (≈ 0.0183 µM) in assay [2]; 0.13 µg/mL (≈ 0.0795 µM) in assay [3]; 2 µg/mL (≈ 1.22 µM) in assay [4] (setting [7]); 0.03 µg/mL (≈ 0.0183 µM) in assay [5].
`CN[C@H](CC(C)C)C(=O)N[C@H]1C(=O)N[C@@H](CC(N)=O)C(=O)N[C@H]2C(=S)NC3C(=O)N[C@H](C(=O)N[C@H](CO)c4cc(O)cc(O)c4-c4cc3ccc4O)[C@H](O)c3ccc(c(Cl)c3)Oc3cc2cc(c3OC2OC(CO)C(O)[C@H](O)[C@@H]2O[C@H]2CC(C)(N)[C@H](O)[C@H](C)O2)Oc2ccc(cc2Cl)[C@H]1O` (stereo partly shown) [Compound 24]: the MIC in assay [1] (read-out: MIC, VanA E. faecium) is over 32 µg/mL; in assay [2], over 32 µg/mL; in assay [3], over 32 µg/mL; in assay [4] (setting [7]), over 32 µg/mL; in assay [5], over 32 µg/mL.
On to `CN[C@H](CC(C)C)C(=O)N[C@H]1C(=O)N[C@@H](CC(N)=O)C(=O)N[C@H]2C(=N)NC3C(=O)N[C@H](C(=O)N[C@H](CO)c4cc(O)cc(O)c4-c4cc3ccc4O)[C@H](O)c3ccc(c(Cl)c3)Oc3cc2cc(c3OC2OC(CO)C(O)[C@H](O)[C@@H]2O[C@H]2CC(C)(N)[C@H](O)[C@H](C)O2)Oc2ccc(cc2Cl)[C@H]1O` (stereo partly shown) [Compound 25], for which the MIC was found to be 2 µg/mL (≈ 1.39 µM) in assay [1] (read-out: MIC, VanA E. faecium) and 2 µg/mL (≈ 1.39 µM) in assay [4] (setting [7]).
As for `CN[C@H](CC(C)C)C(=O)N[C@H]1C(=O)N[C@@H](CC(N)=O)C(=O)N[C@H]2C(=S)NC3C(=O)N[C@H](C(=O)N[C@H](CO)c4cc(O)cc(O)c4-c4cc3ccc4O)[C@H](O)c3ccc(c(Cl)c3)Oc3cc2cc(c3OC2OC(CO)C(O)[C@H](O)[C@@H]2O[C@H]2CC(C)(NCc3ccc(-c4ccc(Cl)cc4)cc3)[C@H](O)[C@H](C)O2)Oc2ccc(cc2Cl)[C@H]1O` (stereo partly shown) [Compound 27], the MIC worked out at 4 µg/mL (≈ 2.42 µM) in assay [1] (read-out: MIC, VanA E. faecium); 8 µg/mL (≈ 4.84 µM) in assay [2]; 4 µg/mL (≈ 2.42 µM) in assay [3]; 8 µg/mL (≈ 4.84 µM) in assay [4] (setting [7]); 4 µg/mL (≈ 2.42 µM) in assay [5].
As for `CN[C@H](CC(C)C)C(=O)N[C@H]1C(=O)N[C@@H](CC(N)=O)C(=O)N[C@H]2C(=N)NC3C(=O)N[C@H](C(=O)N[C@H](C(=O)O)c4cc(O)cc(O)c4-c4cc3ccc4O)[C@H](O)c3ccc(c(Cl)c3)Oc3cc2cc(c3OC2OC(CO)C(O)[C@H](O)[C@@H]2O[C@H]2CC(C)(N)[C@H](O)[C@H](C)O2)Oc2ccc(cc2Cl)[C@H]1O` (stereo partly shown) [Compound 3, [Ψ[C(═NH)NH]Tpg^4]vancomycin], the MIC in assay [1] (setting [8]) was 0.5 µg/mL (≈ 0.345 µM); in assay [1] (setting [9]), 4 µg/mL (≈ 2.76 µM); in assay [1] (setting [10]), over 32 µg/mL; in assay [1] (read-out: MIC, VanA E. faecium), 0.5 µg/mL (≈ 0.345 µM); in assay [4] (setting [11]) it was 0.5 µg/mL (≈ 0.345 µM); in assay [4] (setting [12]), 8 µg/mL (≈ 5.52 µM). The MIC was over 32 µg/mL in assay [4] (setting [13]) and 0.5 µg/mL (≈ 0.345 µM) in assay [4] (setting [7]).
Consider `CN[C@H](CC(C)C)C(=O)N[C@H]1C(=O)N[C@@H](CC(N)=O)C(=O)N[C@H]2CNC3C(=O)N[C@H](C(=O)N[C@H](C(=O)O)c4cc(O)cc(O)c4-c4cc3ccc4O)[C@H](O)c3ccc(c(Cl)c3)Oc3cc2cc(c3OC2OC(CO)C(O)[C@H](O)[C@@H]2O[C@H]2CC(C)(N)[C@H](O)[C@H](C)O2)Oc2ccc(cc2Cl)[C@H]1O` (stereo partly shown) [Compound 16, [Ψ[CH2NH]Tpg^4]vancomycin], for which the MIC in assay [1] (setting [8]) worked out at 31 µg/mL (≈ 21.6 µM); in assay [1] (setting [9]), 62 µg/mL (≈ 43.2 µM); in assay [1] (setting [10]) it was 125 µg/mL (≈ 87.1 µM); in assay [1] (read-out: MIC, VanA E. faecium), 31 µg/mL (≈ 21.6 µM); in assay [4] (setting [11]) it was 31 µg/mL (≈ 21.6 µM); in assay [4] (setting [12]) it was 62 µg/mL (≈ 43.2 µM). In addition, the MIC worked out at 125 µg/mL (≈ 87.1 µM) in assay [4] (setting [13]) and 31 µg/mL (≈ 21.6 µM) in assay [4] (setting [7]).
